Reference: ChEMBL document CHEMBL1130763, “Nonpeptide glycoprotein IIb/IIIa inhibitors: substituted quinazolinediones and quinazolinones as potent fibrinogen receptor antagonists” (Bioorg Med Chem Lett, 1998)

species: Homo sapiens; assay: In vitro inhibition of platelet aggregation by measuring its effect on the ADP-stimulated aggregation of human platelets; type: functional

SMILES | IC50 [nM]
CCCCS(=O)(=O)NC(CC#Cc1ccc2nc(C)n(CCC3CCNCC3)c(=O)c2c1)C(=O)O (configuration not stated) | 43
CCCCS(=O)(=O)NC(CC#Cc1ccc2[nH]c(=O)n(CCC3CCNCC3)c(=O)c2c1)C(=O)O (configuration not stated) | 37
CCCCS(=O)(=O)NC(CCCc1ccc2c(c1)c(=O)n(CCC1CCNCC1)c(=O)n2C)C(=O)O (configuration not stated) | 140
CCCCS(=O)(=O)NC(CCCc1ccc2c(c1)c(=O)n(CCC1CCNCC1)c(=O)n2Cc1ccccc1)C(=O)O (configuration not stated) | 160
CCCCS(=O)(=O)NC(CNC(=O)c1ccc2[nH]c(=O)n(CCC3CCNCC3)c(=O)c2c1)C(=O)O (configuration not stated) | 210
CCCCS(=O)(=O)NC(CC#Cc1ccc2c(c1)c(=O)n(CCC1CCNCC1)c(=O)n2C)C(=O)O (configuration not stated) | 67
CCCCS(=O)(=O)NC(CC#Cc1ccc2c(c1)c(=O)n(CCC1CCNCC1)c(=O)n2Cc1ccncc1)C(=O)O (configuration not stated) | 74
CCCCS(=O)(=O)NC(CC#Cc1ccc2c(c1)c(=O)n(CCC1CCNCC1)c(=O)n2Cc1ccccc1)C(=O)O (configuration not stated) | 61
CCCCS(=O)(=O)N[C@@H](Cc1ccc(OCCCCC2CCNCC2)cc1)C(=O)O | 15
CCCCS(=O)(=O)N[C@@H](CNC(=O)c1ccc2c(c1)C(=O)N(CCC1CCNCC1)C2)C(=O)O | 9
CCCCS(=O)(=O)NC(CCCc1ccc2c(c1)c(=O)n(CCC1CCNCC1)c(=O)n2Cc1ccncc1)C(=O)O (configuration not stated) | 100
CCCCS(=O)(=O)NC(CCCc1ccc2[nH]c(=O)n(CCC3CCNCC3)c(=O)c2c1)C(=O)O (configuration not stated) | 160
